Assay results from patent publication US20230210903A1, “HYPOXIA-RESISTANT NATURAL KILLER CELLS” (ONK THERAPEUTICS LIMITED, priority 2020, published 2023).

Legend:
[1] = test system: phosphorylation of ERK and STAT3; assay: Western blotting of ERK and STAT3 phosphorylation in hypoxic KHYG-1 cells; format: cell-based; details: hypoxic KHYG-1 cells pre-treated with 5 μM for 2 h
Protocol: Hypoxic KYHG-1 cells were pre-treated with 5 μM TPI-1 for 2 h, and then the cells were collected for western blotting analysis.
For western blotting, treated and untreated KHYG-1 and NK92 cells were lysed in buffer containing 50 mM Tris, 150 mM NaCl, 1% Triton X-100, 1% sodium deoxycholate, 0.1% SDS and protease inhibitors on ice for 30 min. Lysates were centrifuged at 12,000 rpm for 15 min, and supernatants were collected. Protein concentration was determined by the BCA protein assay kit (HEART Biotech, #WB003). Equal amounts of protein were loaded and separated on sodium dodecyl sulfate-polyacrylamide gel electrophoresis gel, and transferred onto a PVDF membrane (Millipore, #IPVH00010). After blocking for 1 h with 5% non-fat milk in PBS with 0.1% Tween-20 at room temperature, the membrane was incubated with primary antibody at 4° C. overnight. Immunoblots were visualized using HRP-conjugated secondary antibodies and the ECL Western Blot Detection kit (Phygene Life Sciences, #PH0353).

K562 cells = details: KHYG-1 pretreated with 10 μM for 6 h, then K562 at different E:T ratios for 4 h
Protocol: Statistical analysis showing the effects of ERK and STAT3 inhibition on NK cells cytotoxicity against K562 cells (n=3, * P<0.05, ** P<0.01). KHYG-1 cells were pretreated with 10 μM U0126 and 10 μM CPT for 6 h and then incubated with K562 at different E:T ratios for 4 h.
(e) Flow cytometric analysis of the effects of TPI-1 on the NK cell cytotoxicity. Left panel: representative flow cytometry results of TPI-1 on the cytotoxicity of KHYG-1 cells. KHYG-1 cells were pretreated with 5 μM TPI-1 for 2 h, and then incubated with K562 cells at different E:T ratios for 4 h. Right panel: statistical analysis of the effects of TPI-1 on KHYG-1 cell cytotoxicity against K562 cells (n=3, * P<0.05).
(b) Statistical analysis of the effects of knocking down SHP-1 on NK cells cytotoxicity against K562 cells (n=3, * P<0.05). […]
Prior to the assay, NK cells and tumour cells were individually pre-incubated for 24 h at 5% CO2 with 20% or 1% 02 first. […] After the 4 h incubation, samples were harvested and washed followed by a combinational staining with CD2-APC, Annexin V-FITC as well as Sytox Green, in which CD2 was used to distinguish effector from target cells, and target cell death was detected with Annexin V-FITC and Sytox Green. A minimum of 10,000 target events were collected per sample, and the results were analyzed using Flowjo v7.6.2.

KHYG-1 cells = assay: Flow cytometry of activating receptors on NK cell surface, KHYG-1; format: cell-based; details: 10 μM inhibitor for 24 h
Protocol: (§1) Hypoxia diminishes the phosphorylation level of ERK and STAT3.
(§2) The expression of NK cell cytotoxicity effector molecules and activating receptors was analyzed by flow cytometry. For membrane staining, 5×10^5 cells were collected and washed with staining buffer (PBS containing 0.1% NaN3 and 0.1% BSA) three times. The cells were then incubated for 30 min on ice, according to the instructions provided with the respective antibodies. After washing 3 times with cell stain buffer, the cells were resuspended in 300 μL staining buffer in the presence of Sytox Green or 7-AAD, which were used to gate out dead cells. Acquisition of 10,000 cells per reaction was performed using a CytoFLEX Cytometer (Beckman Coulter Life Sciences). Data were analyzed with Flowjo v7.6.2 (Tree Star). For intracellular staining, 5×10^5 cells were collected and fixed with 1 mL 1% paraformaldehyde in PBS for 15 minutes at room temperature. After washing 3 times with cell stain buffer, the fixed cells were then resuspended in 2 mL permeabilization buffer (0.1% saponin in cell staining buffer) and incubated for 30 min at room temperature. The cells were collected again by centrifugation, stained with the antibody at an optimal working concentration in permeabilization buffer for 15 min on ice. […]

NK-92 cells = assay: Flow cytometry of activating receptors on NK cell surface, NK-92; format: cell-based; details: 10 μM inhibitor for 24 h
Protocol: as §1, §2

decoy receptor DcR1 = molecular target: T1, decoy receptor DcR1 (Homo sapiens, UniProt O14798); details: surface plasmon resonance; WO 2009/077857; cited from earlier work
T1 sequence (O14798 26-236): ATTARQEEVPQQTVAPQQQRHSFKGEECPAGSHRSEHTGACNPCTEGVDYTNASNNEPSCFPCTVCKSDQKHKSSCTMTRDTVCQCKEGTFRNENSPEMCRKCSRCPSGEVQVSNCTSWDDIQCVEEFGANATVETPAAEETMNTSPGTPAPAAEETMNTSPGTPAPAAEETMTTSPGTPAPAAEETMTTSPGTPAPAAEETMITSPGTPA

DR4 = DR4 (Homo sapiens, UniProt O00220); details: surface plasmon resonance; WO 2009/077857; cited from earlier work
DcR2 = molecular target: T2, DcR2 (Homo sapiens, UniProt Q9UBN6); details: compared with wildtype TRAIL; cited from earlier work
T2 sequence (Q9UBN6 56-386): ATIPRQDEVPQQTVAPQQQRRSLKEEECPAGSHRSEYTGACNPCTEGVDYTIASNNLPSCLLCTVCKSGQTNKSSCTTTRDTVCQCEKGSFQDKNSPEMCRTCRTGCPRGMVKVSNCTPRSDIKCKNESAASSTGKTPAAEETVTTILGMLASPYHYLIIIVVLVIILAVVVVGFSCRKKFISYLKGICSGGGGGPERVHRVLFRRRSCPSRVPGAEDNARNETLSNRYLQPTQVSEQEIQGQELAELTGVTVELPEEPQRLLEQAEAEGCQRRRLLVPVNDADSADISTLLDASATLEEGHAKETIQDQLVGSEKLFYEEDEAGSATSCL

DR5 = DR5 (Homo sapiens, UniProt O14763); details: compared with wildtype TRAIL; cited from earlier work
DcR1 = molecular target: T3, DcR1 (Homo sapiens, UniProt O14798); details: compared with wildtype TRAIL; cited from earlier work
T3 sequence (O14798 26-236): T1 sequence (O14798 26-236)

Molecule: O=C1C=CC(=O)C(c2cc(Cl)ccc2Cl)=C1 [TPI-1]
- phosphorylation of ERK and STAT3 [1]: reverse the decrease

Molecule: N#CC(=C(/N)Sc1ccccc1N)/C(C#N)=C(\N)Sc1ccccc1N [U0126]
- NK cell cytotoxicity against cancer cells (K562 cells): significantly impaired
- expression of activating receptors NKp30, NKp46 and NKG2D (KHYG-1 cells): significantly reduced
- expression of activating receptors NKp46 and NKG2D (NK-92 cells): significantly reduced

Molecule: C[C@H]1COC2=C1C(=O)C(=O)c1c2ccc2c1CCCC2(C)C [cryptotanshinone]
- NK cell cytotoxicity against cancer cells (K562 cells): significantly impaired

Molecule: Wildtype TRAIL: wildtype TRAIL ligand
- Kd (decoy receptor DcR1): > 20 nM
- Kd (DR4): > 2 nM

B1: TRAIL variant: encoded by the wildtype TRAIL gene containing the D269H/E195R mutation, described in WO 2009/077857 (protein)
chain: MAMMEVQGGPSLGQTCVLIVIFTVLLQSLCVAVTYVYFTNELKQMQDKYSKSGIACFLKEDDSYWDPNDEESMNSPCWQVKWQLRQLVRKMILRTSEETISTVQEKQQNISPLVRERGPQRVAAHITGTRGRSNTLSSPNSKNEKALGRKINSWESSRSGHSFLSNLHLRNGELVIHEKGFYYIYSQTYFRFQERIKENTKNDKQMVQYIYKYTSYPDPILLMKSARNSCWSKDAEYGLYSIYQGGIFELKENDRIFVSVTNEHLIDMHHEASFFGAFLVG
- affinity for decoy receptor DcR2 (DcR2): reducing
- affinity for DR5 (DR5): significantly increases
- affinity for decoy receptor DcR1 (DcR1): reducing
